± gives the standard deviation of the averaged measurements.
Experiments:
Assay in all cases: level (log10 ratio to DMSO vehicle control); higher = higher biomarker level / cell amount than vehicle control
Details in all cases: in DMSO
[1] = compound: O=S(=O)(Cl)C(F)(F)C(F)(F)C(F)(F)C(F)(F)C(F)(F)C(F)(F)C(F)(F)C(F)(F)F [Perfluoro-1-octanesulfonyl chloride]
Method: (§1)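 BioMAP Diversity Plus panel of 12 human primary cell co-culture systems (3C, 4H, LPS, SAg, BT, BF4T, BE3C, CASM3C, HDF3CGF, KF3CT, MyoF, Mphg). Compounds were added 1 h before stimulation and left for 24 h (MyoF 48 h; BT 72 h for soluble read-outs or 6 d for IgG). Biomarkers were read by ELISA, cytotoxicity by SRB, PBMC viability and proliferation by Alamar Blue. Each well value was divided by the mean of 8 DMSO control wells on the same plate and log10 transformed; duplicate blinded samples were tested at 4 concentrations.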

[2] = compound: FC(F)(F)C(F)(F)CNCC(F)(F)C(F)(F)F [Bis(1H,1H-perfluoropropyl)amine]
Method: as §1

[3] = compound: O=S(=O)(O)C(F)(F)C(F)(F)C(F)(F)C(F)(F)C(F)(F)C(F)(F)C(F)(F)C(F)(F)C(F)(F)C(F)(F)F [Sodium perfluorodecanesulfonate]
Method: as §1

[4] = compound: FC(F)(F)C(F)(F)C(F)(F)C(F)(F)C(F)(F)C(F)(F)CC1CO1 [3-(Perfluorohexyl)-1,2-epoxypropane]
Method: as §1

[5] = compound: NS(=O)(=O)C(F)(F)C(F)(F)C(F)(F)C(F)(F)C(F)(F)C(F)(F)F [Perfluorohexanesulfonamide]
Method: as §1

[6] = compound: C=C(C)C(=O)OCCC(F)(F)C(F)(F)C(F)(F)C(F)(F)C(F)(F)C(F)(F)F [6:2 Fluorotelomer methacrylate]
Method: as §1

Test System	level (log10) ([1]; 6700 nM)	level (log10) ([1]; 20000 nM)	level (log10) ([1]; 60000 nM)	level (log10) ([2]; 6700 nM)	level (log10) ([2]; 20000 nM)	level (log10) ([2]; 60000 nM)	level (log10) ([3]; 1500 nM)	level (log10) ([3]; 4400 nM)	level (log10) ([3]; 13000 nM)	level (log10) ([3]; 40000 nM)	level (log10) ([4]; 6700 nM)	level (log10) ([4]; 20000 nM)	level (log10) ([4]; 60000 nM)	level (log10) ([5]; 6700 nM)	level (log10) ([5]; 20000 nM)	level (log10) ([5]; 60000 nM)	level (log10) ([6]; 6700 nM)	level (log10) ([6]; 20000 nM)	level (log10) ([6]; 60000 nM)
CASM3C:CD87/uPAR	-0.0235 ± 0.054	-0.0285 ± 0.054	-0.0155 ± 0.069	-0.0255 ± 0.012	-0.0155 ± 0.019	-0.012 ± 0.035	0.0455 ± 0.021	-0.0065 ± 0.03	0.042 ± 0.0042	0.0075 ± 0.015	-0.0105 ± 0.023	-0.025 ± 0.013	-0.0165 ± 0.012	-0.01 ± 0.0071	-0.028 ± 0.0028	-0.029 ± 0.033	-0.014 ± 0.028	-0.0285 ± 0.023	-0.0355 ± 0.023
HDF3CGF:CD54/ICAM-1	0.039 ± 0.023	0.034 ± 0.051	0.0005 ± 0.03	0.026 ± 0.018	0.033 ± 0.0085	0.0405 ± 0.018	-0.0145 ± 0.021	-0.031 ± 0.016	-0.037 ± 0.016	-0.063 ± 0.0057	-0.01 ± 0.018	-0.0095 ± 0.0092	-0.021 ± 0.034	-0.005 ± 0.0028	-0.0155 ± 0.012	-0.0225 ± 0.005	-0.011 ± 0.0042	0.0035 ± 0.012	0.005 ± 0.0014
KF3CT:CXCL9/MIG	-0.0045 ± 0.005	-0.002 ± 0.0057	0.005 ± 0.0042	0.0085 ± 0.016	-0.001 ± 0.0028	0.007 ± 0.011	0.0005 ± 0.0064	-0.0045 ± 0.0021	0.0015 ± 0.0092	0 ± 0.0042	0	0.01 ± 0.0057	0.0115 ± 0.0021	0.0005 ± 0.0035	-0.0075 ± 0.016	-0.008 ± 0.0057	0.012 ± 0.0042	0.01 ± 0.0028	0.01 ± 0.02
MyoF:Decorin	-0.007 ± 0.0071	0.014 ± 0.033	0.09 ± 0.085	-0.005 ± 0.0071	-0.0065 ± 0.021	0.015 ± 0.034	-0.0285 ± 0.016	0.013 ± 0.0099	-0.0025 ± 0.016	0.034	0.001 ± 0.03	0.003	0.0265 ± 0.035	0.0325 ± 0.076	-0.0095 ± 0.1	-0.03 ± 0.054	-0.0045 ± 0.033	0.0325 ± 0.028	0.015 ± 0.0042
4H:SRB	-0.0105 ± 0.0078	0 ± 0.014	-0.0495 ± 0.061	-0.0245 ± 0.013	0 ± 0.017	0.0015 ± 0.013	-0.003 ± 0.0042	-0.004 ± 0.0071	-0.017 ± 0.0014	-0.023 ± 0.0099	0.007 ± 0.0028	-0.003 ± 0.0057	0.015 ± 0.023	-0.01 ± 0.0085	-0.028 ± 0.0099	-0.101 ± 0.0014	-0.0005 ± 0.0035	0.0005 ± 0.016	0.008 ± 0.014
KF3CT:MMP-9	-0.0225 ± 0.028	-0.0155 ± 0.013	-0.193 ± 0.026	-0.024 ± 0.0071	-0.013 ± 0.035	0.001 ± 0.042	-0.01 ± 0.0085	-0.0325 ± 0.0078	-0.0735 ± 0.012	-0.139 ± 0.036	-0.014 ± 0.0042	-0.0225 ± 0.00071	-0.0155 ± 0.025	-0.015 ± 0.02	-0.039 ± 0.03	-0.093 ± 0.021	-0.0275 ± 0.056	-0.0145 ± 0.03	-0.009 ± 0.0042
3C:SRB	-0.0105 ± 0.0078	0.0015 ± 0.022	-0.233 ± 0.084	-0.02 ± 0.021	0.0105 ± 0.0092	0.0075 ± 0.0064	-0.0035 ± 0.0035	-0.0155 ± 0.016	-0.04 ± 0.021	-0.191 ± 0.0028	0.009 ± 0.0042	0.014 ± 0.0085	0.018 ± 0.0099	-0.01 ± 0.011	-0.0125 ± 0.0078	-0.139 ± 0.014	-0.004 ± 0.014	-0.0025 ± 0.0078	0 ± 0.018
MyoF:MMP-1	-0.013 ± 0.017	-0.0095 ± 0.0092	0.0705 ± 0.061	-0.0065 ± 0.011	-0.01 ± 0.021	0.0245 ± 0.08	0.038 ± 0.1	-0.022 ± 0.055	-0.012 ± 0.02	0.0165 ± 0.064	-0.019 ± 0.0085	-0.02 ± 0.017	0.017 ± 0.055	-0.0285 ± 0.016	-0.0215 ± 0.0035	0.0495 ± 0.025	0.043 ± 0.0042	0.045 ± 0.04	0.018 ± 0.038
MyoF:TIMP-1	-0.009 ± 0.044	0.0035 ± 0.043	0.148 ± 0.031	-0.0225 ± 0.039	0.0005 ± 0.067	-0.0035 ± 0.0064	-0.037 ± 0.014	-0.0445 ± 0.016	-0.0415 ± 0.04	-0.0725 ± 0.044	-0.0295 ± 0.046	-0.028 ± 0.027	0.033 ± 0.03	0.019 ± 0.037	0.017 ± 0.045	0.021 ± 0.051	-0.036 ± 0.062	-0.0135 ± 0.066	-0.017 ± 0.041
lMphg:CD106/VCAM-1	0.008 ± 0.0057	0.0135 ± 0.0078	0.0255 ± 0.00071	0.0135 ± 0.011	0.0055 ± 0.0092	0.0075 ± 0.0035	-0.0065 ± 0.012	-0.0215 ± 0.018	-0.021 ± 0.0071	-0.0515 ± 0.0078	0.0025 ± 0.012	0.005 ± 0.013	-0.0015 ± 0.018	-0.0155 ± 0.025	-0.012 ± 0.024	-0.0805 ± 0.018	-0.024 ± 0.013	-0.007 ± 0.021	-0.021 ± 0.011
HDF3CGF:M-CSF	-0.0065 ± 0.016	0.0245 ± 0.021	0.0195 ± 0.011	-0.0125 ± 0.025	-0.018 ± 0.031	-0.029 ± 0.069	0.0325 ± 0.0078	0.009 ± 0.018	0.037 ± 0.035	0.0405 ± 0.0035	0 ± 0.014	-0.002 ± 0.0042	-0.019 ± 0.0085	0.0285 ± 0.037	0.0395 ± 0.035	-0.065 ± 0.038	-0.02 ± 0.0057	-0.022 ± 0.0099	-0.029 ± 0.0028
lMphg:CXCL8/IL-8	-0.002 ± 0.017	0.0335 ± 0.00071	0.115 ± 0.061	0 ± 0.011	0.0075 ± 0.069	-0.0035 ± 0.053	0.0185 ± 0.032	0.0015 ± 0.005	0.042 ± 0.0071	0.131 ± 0.013	-0.0215 ± 0.0035	-0.0125 ± 0.019	0.04 ± 0.05	0.05 ± 0.014	0.083 ± 0.011	0.146 ± 0.0085	0.0275 ± 0.005	0.0205 ± 0.0092	0.0425 ± 0.026
CASM3C:CXCL8/IL-8	-0.021 ± 0.0057	-0.0125 ± 0.013	0.015 ± 0.035	-0.0065 ± 0.0092	-0.005 ± 0.014	0.003 ± 0.027	0.025 ± 0.016	0.01 ± 0.037	0.03 ± 0.021	0.064 ± 0.034	0.011 ± 0.016	0.011 ± 0.0099	0.0295 ± 0.025	-0.0235 ± 0.0035	-0.014 ± 0.014	0.001 ± 0.0085	0.0185 ± 0.018	0.0165 ± 0.012	0.0205 ± 0.00071
HDF3CGF:Collagen III	0.0055 ± 0.021	0.0365 ± 0.015	-0.008 ± 0.062	-0.002 ± 0.018	-0.002 ± 0.0042	0.0325 ± 0.036	-0.031 ± 0.042	-0.074 ± 0.025	0.054 ± 0.0014	0.0205 ± 0.052	-0.0075 ± 0.012	-0.005 ± 0.0099	0.0155 ± 0.046	0.0055 ± 0.022	0.0305 ± 0.011	-0.1 ± 0.018	-0.0285 ± 0.044	-0.007 ± 0.041	0.003 ± 0.052
BE3C:SRB	-0.001 ± 0.0014	-0.049 ± 0.0057	-0.659 ± 0.019	-0.002 ± 0.0057	-0.004	0.003 ± 0.0071	0.0005 ± 0.0021	0 ± 0.0014	-0.0555 ± 0.028	-0.368 ± 0.069	0.008 ± 0.0057	0.0025 ± 0.0064	0.011 ± 0.018	-0.0065 ± 0.00071	-0.022	-0.058 ± 0.0099	0.0015 ± 0.0035	0.003 ± 0.0028	0.0025 ± 0.0021
